Where two headings read alike, the source gives them in different places.
Key:
[1] = tested on: HIV; experiment: in vitro anti-HIV assay: inhibition of HIV-induced cytopathic effect in MT-4 cells (MTT); assay type: cell-based; settings: for pSI: pSI = pCC50-pIC50 (selectivity index CC50/IC50); for pIC50 (M): −log IC50
Protocol: (§1) A rapid, sensitive and automated assay procedure was used for the in vitro evaluation of anti-HIV agents. […] Inhibition of the HIV-induced cytopathic effect was used as the end point. The viability of both HIV- and mock-infected cells was assessed spectrophotometrically via the in situ reduction of 3-(4,5-dimethylthiazol-2-yl)-2,5-diphenyltetrazolium bromide (MTT). The 50% cytotoxic concentration (CC50 in M) was defined as the concentration of compound that reduced the absorbance of the mock-infected control sample by 50%. The percent protection achieved by the compound in HIV-infected cells was calculated by the following formula:
(§2) [formula] whereby (ODT)HIV is the optical density measured with a given concentration of the test compound in HIV-infected cells; (ODC)HIV is the optical density measured for the control untreated HIV-infected cells; (ODC)MOCK is the optical density measured for the control untreated mock-infected cells; all optical density values were determined at 540 nm. The dose achieving 50% protection according to the above formula was defined as the 50% inhibitory concentration (IC50 in M). The ratio of CC50 to IC50 was defined as the selectivity index (SI).

[2] = tested on: mock-infected MT-4 cells; experiment: cytotoxicity (CC50) in mock-infected MT-4 cells (MTT); assay type: cell-based
Protocol: as §1, §2

[3] = 50% protection against HIV-induced cytopathic effect in MT-4 cells, MTT

Cc1cc(C=C(C#N)CC#N)cc(C)c1Nc1ccnc(Nc2ccc(C#N)cc2)n1 (mixture of isomers) [Compound 147]
pSI [1]: −3.7
pIC50 (M) [1, 3]: 9.4 M
pCC50 (M) [2]: 5.7 M

Cc1cc(/C=C/C#N)cc(C)c1Nc1ccnc(Nc2ccc(C#N)cc2)n1 [Compound 1, 4-[[4-[[4-(2-cyanoethenyl)-2,6-dimethylphenyl]amino]-2-pyrimidinyl]amino]benzonitrile]
pSI [1]: −4.4

Cc1cc(/C=C/C#N)cc(C)c1Nc1ccnc(Nc2ccc(C#N)cc2)n1 [Compound 10]
IC50 ([1]; Human immunodeficiency virus 1, MT4, −log IC50, 50% protection against HIV-induced cytopathic effect in MT-4 cells, MTT): 0.631 nM
pSI [1]: −2.9
pCC50 (M) ([2]; −log CC50, mock-infected MT-4 cells, MTT): 6.3 M

Cc1cc(C=CC#N)cc(C)c1Oc1ccnc(Nc2ccc(C#N)cc2)n1 [Compound 25]
pSI [1]: −5
pIC50 (M) [1, 3]: 9 M

CC(=NO)c1cc(C)c(Nc2ccnc(Nc3ccc(C#N)cc3)n2)c(C)c1 [Compound 45]
pSI [1]: −3.8
pIC50 (M) [1, 3]: 8.7 M
pCC50 (M) [2]: 5.0 M

Cc1cc(CN(C)CCC#N)cc(C)c1Nc1ccnc(Nc2ccc(C#N)cc2)n1 [Compound 75]
pSI [1]: −4.0
pIC50 (M) [1, 3]: 9.0 M
pCC50 (M) [2]: 5.0 M

C/C(=C\C#N)c1cc(C)c(Nc2ccnc(Nc3ccc(C#N)cc3)n2)c(C)c1 [Compound 84]
pSI [1]: −4.5
pIC50 (M) [1, 3]: 9.0 M
pCC50 (M) [2]: 4.5 M

Cc1cc(/C=C/C#N)cc(Cl)c1Nc1ccnc(Nc2ccc(C#N)cc2)n1 [Compound 133]
pSI [1]: −5.2
pIC50 (M) [1, 3]: 9.2 M
pCC50 (M) [2]: 4 M

Cc1cc(CC(C#N)C#N)cc(C)c1Nc1ccnc(Nc2ccc(C#N)cc2)n1 [Compound 144]
pSI [1]: −2.2
pIC50 (M) [1, 3]: 8.6 M
pCC50 (M) [2]: 6.4 M

Cc1cc(/C=C/c2cccnc2)cc(C)c1Nc1ccnc(Nc2ccc(C#N)cc2)n1 [Compound 146]
pSI [1]: −3

CC/C(=C\C#N)c1cc(C)c(Nc2ccnc(Nc3ccc(C#N)cc3)n2)c(C)c1 [Compound 148]
pSI [1]: −3.9
pIC50 (M) [1, 3]: 8.8 M
pCC50 (M) [2]: 4.9 M

Cc1cc(/C(=C/C#N)C(C)C)cc(C)c1Nc1ccnc(Nc2ccc(C#N)cc2)n1 [Compound 149]
pSI [1]: −3.8
pIC50 (M) [1, 3]: 9.1 M
pCC50 (M) [2]: 5.3 M

Cc1cc(/C(=C\C#N)C(C)C)cc(C)c1Nc1ccnc(Nc2ccc(C#N)cc2)n1 [Compound 150]
pSI [1]: −4.0
pIC50 (M) [1, 3]: 8.8 M
pCC50 (M) [2]: 4.8 M

CC(C#N)=Cc1cc(C)c(Nc2ccnc(Nc3ccc(C#N)cc3)n2)c(C)c1 [Compound 151]
pSI [1]: −3.6
pIC50 (M) [1, 3]: 9.1 M
pCC50 (M) [2]: 5.5 M

CC(C#N)=Cc1cc(C)c(Nc2ccnc(Nc3ccc(C#N)cc3)n2)c(C)c1 [Compound 152]
pSI [1]: −4.3
pIC50 (M) [1, 3]: 9.1 M
pCC50 (M) [2]: 4.8 M

Cc1cc(CC(C)C#N)cc(C)c1Nc1ccnc(Nc2ccc(C#N)cc2)n1 (stereo not shown) [Compound 153]
pSI [1]: −2.9
pIC50 (M) [1, 3]: 9.2 M
pCC50 (M) [2]: 6.3 M

CCN(C)C(=O)/C=C/c1cc(C)c(Nc2ccnc(Nc3ccc(C#N)cc3)n2)c(C)c1 [Compound 158]
pSI [1]: −2.5
pIC50 (M) [1, 3]: 8 M
pCC50 (M) [2]: 5.5 M

Cc1cc(CN(C)C=NC#N)cc(C)c1Oc1ccnc(Nc2ccc(C#N)cc2)n1 [Compound 174]
pSI [1]: −3.5
pIC50 (M) [1, 3]: 8.8 M
pCC50 (M) [2]: 5.3 M

Cc1cc(/C=C\Br)cc(C)c1Oc1ccnc(Nc2ccc(C#N)cc2)n1 [Compound 177]
pSI [1]: <−4.3
pIC50 (M) [1, 3]: 8.3 M
pCC50 (M) [2]: <4.0 M

CC(C#N)=Cc1cc(C)c(Oc2ccnc(Nc3ccc(C#N)cc3)n2)c(C)c1 [Compound 178]
pSI [1]: −3.1
pIC50 (M) [1, 3]: 8.8 M
pCC50 (M) [2]: 5.7 M

CC(C#N)=Cc1cc(C)c(Oc2ccnc(Nc3ccc(C#N)cc3)n2)c(C)c1 [Compound 179]
pSI [1]: <−4.9
pIC50 (M) [1, 3]: 8.9 M
pCC50 (M) [2]: <4.0 M

Cc1cc(/C=C/C(=O)N(C)CC#N)cc(C)c1Oc1ccnc(Nc2ccc(C#N)cc2)n1 [Compound 212]
pSI [1]: −4.1
pIC50 (M) [1, 3]: 9.1 M
pCC50 (M) [2]: 5 M

C/C(=C\C#N)c1cc(C)c(Oc2ccnc(Nc3ccc(C#N)cc3)n2)c(C)c1 [Compound 213]
pSI [1]: −4.2
pIC50 (M) [1, 3]: 9 M
pCC50 (M) [2]: 4.8 M

Cc1cc(/C=C/C(=O)N(C)CCC#N)cc(C)c1Oc1ccnc(Nc2ccc(C#N)cc2)n1 [Compound 214]
pSI [1]: −3.5
pIC50 (M) [1, 3]: 8.6 M
pCC50 (M) [2]: 5.1 M

CCN(C)C(=O)/C=C/c1cc(C)c(Oc2ccnc(Nc3ccc(C#N)cc3)n2)c(C)c1 [Compound 215]
pSI [1]: −3.6
pIC50 (M) [1, 3]: 9.1 M
pCC50 (M) [2]: 5.5 M

Cc1cc(/C=C/C(=O)N(C)C)cc(C)c1Oc1ccnc(Nc2ccc(C#N)cc2)n1 [Compound 219]
pSI [1]: −4.1
pIC50 (M) [1, 3]: 9.1 M
pCC50 (M) [2]: 5 M

Cc1cc(CCC#N)ccc1Nc1ccnc(Nc2ccc(C#N)cc2)n1 [Compound 227]
pSI [1]: <−5.5
pIC50 (M) [1, 3]: 9.5 M
pCC50 (M) [2]: <4.0 M

CC(C#N)=Cc1ccc(Nc2ccnc(Nc3ccc(C#N)cc3)n2)c(C)c1 [Compound 229]
pSI [1]: <−4.8
pIC50 (M) [1, 3]: 8.8 M
pCC50 (M) [2]: <4.0 M

Cc1cc(/C=C/C#N)ccc1Oc1ccnc(Nc2ccc(C#N)cc2)n1 [Compound 230]
pSI [1]: <−5.2
pIC50 (M) [1, 3]: 9.2 M
pCC50 (M) [2]: <4.0 M

CC(C#N)=Cc1ccc(Oc2ccnc(Nc3ccc(C#N)cc3)n2)c(C)c1 [Compound 231]
pSI [1]: <−5.2
pIC50 (M) [1, 3]: 9.2 M
pCC50 (M) [2]: <4.0 M

C/C(=C\C#N)c1ccc(Oc2ccnc(Nc3ccc(C#N)cc3)n2)c(C)c1 [Compound 232]
pSI [1]: <−4.4
pIC50 (M) [1, 3]: 8.4 M
pCC50 (M) [2]: <4.0 M

CC(C#N)=Cc1cc(C)c(Nc2ccnc(Nc3ccc(C#N)cc3)n2)c(Cl)c1 [Compound 233]
pSI [1]: −3.6
pIC50 (M) [1, 3]: 9.3 M
pCC50 (M) [2]: 5.7 M

Cc1cc(CCC#N)ccc1Oc1ccnc(Nc2ccc(C#N)cc2)n1 [Compound 234]
pSI [1]: <−4.7
pIC50 (M) [1, 3]: 8.7 M
pCC50 (M) [2]: <4.0 M

Cc1cc(C(C)CC#N)ccc1Oc1ccnc(Nc2ccc(C#N)cc2)n1 (stereo not shown) [Compound 235]
pSI [1]: <−5.3
pIC50 (M) [1, 3]: 9.3 M
pCC50 (M) [2]: <4.0 M

Cc1cc(CC(C)C#N)ccc1Oc1ccnc(Nc2ccc(C#N)cc2)n1 (stereo not shown) [Compound 236]
pSI [1]: <−4.8
pIC50 (M) [1, 3]: 8.8 M
pCC50 (M) [2]: <4.0 M

Cc1cc(/C=C/C#N)ccc1Nc1ccnc(Nc2ccc(C#N)cc2)n1 [Compound 237]
pSI [1]: <−4.9
pIC50 (M) [1, 3]: 8.9 M
pCC50 (M) [2]: <4.0 M

Cc1cc(CC#N)cc(Cl)c1Nc1ccnc(Nc2ccc(C#N)cc2)n1 [Compound 238]
pSI [1]: −3.9
pIC50 (M) [1, 3]: 9.5 M
pCC50 (M) [2]: 5.6 M

Cc1cc(/C=C/C#N)cc(-c2ccco2)c1Nc1ccnc(Nc2ccc(C#N)cc2)n1 [Compound 239]
pSI [1]: −3.9
pIC50 (M) [1, 3]: 8.9 M
pCC50 (M) [2]: 5 M

Cc1cc(CN(C)CCC#N)cc(Br)c1Nc1ccnc(Nc2ccc(C#N)cc2)n1 [Compound 241]
pSI [1]: −4.1
pIC50 (M) [1, 3]: 9.4 M
pCC50 (M) [2]: 5.3 M

N#C/C=C/c1ccc(Nc2ccnc(Nc3ccc(C#N)cc3)n2)c(Br)c1 [Compound 244]
pSI [1]: −5.2
pIC50 (M) [1, 3]: 9.2 M
pCC50 (M) [2]: 4 M

COc1cc(/C=C/C#N)ccc1Nc1ccnc(Nc2ccc(C#N)cc2)n1 [Compound 245]
pSI [1]: −4.8
pIC50 (M) [1, 3]: 8.8 M
pCC50 (M) [2]: 4 M

CC(C#N)=Cc1cc(C)c(Nc2ccnc(Nc3ccc(C#N)cc3)n2)c(Br)c1 [Compound 247]
pSI [1]: −3
pIC50 (M) [1, 3]: 9.2 M
pCC50 (M) [2]: 6.2 M

Cc1cc(/C=C/C#N)cc(Br)c1Nc1ccnc(Nc2ccc(C#N)cc2)n1 [Compound 248]
pSI [1]: −3.5
pIC50 (M) [1, 3]: 9.3 M
pCC50 (M) [2]: 5.7 M

COc1cc(C=C(C)C#N)ccc1Nc1ccnc(Nc2ccc(C#N)cc2)n1 [Compound 249]
pSI [1]: −4.5
pIC50 (M) [1, 3]: 8.5 M
pCC50 (M) [2]: 4 M

COc1cc(CCC#N)ccc1Nc1ccnc(Nc2ccc(C#N)cc2)n1 [Compound 251]
pSI [1]: −3.9
pIC50 (M) [1, 3]: 8.9 M
pCC50 (M) [2]: 5 M

Reference: patent publication US9192577B2, “Pharmaceutical compositions comprising a basic drug compound, a surfactant, and a physiologically tolerable water soluble acid” (Janssen Pharmaceutica NV, priority 2002, dated 2015)
